Test results reported in US20110144156A1, “A3 ADENOSINE RECEPTOR ALLOSTERIC MODULATORS” (UNIVERSITEIT LEIDEN, priority 2008, published 2011).

What was measured:
[1] = target: T1, human A3ARs (Homo sapiens, UniProt P0DMS8); experiment: Competitive binding assay to the human A3 AR with [125I]I-AB-MECA; conditions: 1 h, 10 μM test compound; [125I]I-AB-MECA radioligand; CHO cell membranes expressing human A3AR; brackets = individual assays; read-out: % displacement at 10 μM (hA3AR)
T1 construct: expressed in transfected cells; host or cells: CHO (Chinese hamster ovary) cells; membrane preparation
T1 sequence (P0DMS8 1-318): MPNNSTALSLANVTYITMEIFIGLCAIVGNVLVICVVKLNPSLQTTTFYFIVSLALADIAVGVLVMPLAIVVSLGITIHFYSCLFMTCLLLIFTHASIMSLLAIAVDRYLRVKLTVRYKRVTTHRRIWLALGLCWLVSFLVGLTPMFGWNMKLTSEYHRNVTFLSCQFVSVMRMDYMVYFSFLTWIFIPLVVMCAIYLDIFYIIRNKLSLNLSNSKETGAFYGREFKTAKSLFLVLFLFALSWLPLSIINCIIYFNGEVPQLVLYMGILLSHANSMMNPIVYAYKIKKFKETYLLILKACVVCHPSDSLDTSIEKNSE
Description: (§1) CHO (Chinese hamster ovary) cells expressing the recombinant human A3 receptors were cultured in DMEM and F12 (1:1) supplemented with 10% fetal bovine serum, 100 units/ml penicillin, 100 μg/ml streptomycin and 2 μmol/ml glutamine. Cells were harvested by trypsinization. After homogenization and suspension, cells were centrifuged at 500 g for 10 min, and the pellet was re-suspended in 50 mM Tris.HCl buffer (pH 7.4) containing 10 mM MgCl2. The suspension was homogenized with an electric homogenizer for 10 sec, and was then re-centrifuged at 20,000 g for […] at 4° C. The resultant pellets were resuspended in buffer in the presence of 3 Units/mL adenosine deaminase, and the suspension was stored at −80° C. until the binding experiments. The protein concentration was measured using the Bradford assay.
Each tube in the competitive binding assay contained 100 μl membrane suspension (20 μg protein), 50 μl [^125I]I-AB-MECA (0.5 nM), and 50 μl of increasing concentrations of the test modulators in Tris.HCl buffer (50 mM, pH 8.0) containing 10 mM MgCl2, 1 mM EDTA. Nonspecific binding was determined using 10 μM of 5′-N-ethylcarboxamidoadenosine in the buffer. The mixtures were incubated at 25° C. for 60 min. Binding reactions were terminated by filtration through Whatman GF/B filters under reduced pressure using a MT-24 cell harvester (Brandell, Gaithersburgh, Md., USA). Filters were washed three times with 9 mL ice-cold buffer. Radioactivity was determined in a Beckman 5500B γ-counter.
Binding parameters were calculated using Prism 5.0 software (GraphPAD, San Diego, Calif., USA). IC50 values obtained from competition curves were converted to Ki values using the Cheng-Prusoff equation. Data were expressed as mean±standard error.

[2] = target: T1, human A3ARs; experiment: Dissociation kinetics of [125I]I-AB-MECA from human A3ARs (allosteric effect); conditions: 10 μM test compound; binding after 1.5 or 2 hours of dissociation, control without modulator set at 100%; brackets = result of each of two assays; read-out: hA3ARAg Dissociation at 10 μM
Description: as §1
The dissociation of [^125I]I-AB-MECA was measured as follows. Membranes (20 μg) were pre-incubated at 25° C. with 0.5 nM [^125I]I-AB-MECA, in a total volume of 100 μl of Tris-HCl buffer (50 mM, pH 8.0) containing 10 mM MgCl2, and 1 mM EDTA for 60 min. The dissociation was then initiated by the addition of 3 μM Cl-IB-MECA with or without allosteric modulators. The time course of dissociation of total binding was measured by rapid filtration at appropriate time intervals. Nonspecific binding was measured after 60-min incubation in the presence of 3 μM Cl-IB-MECA. Further assay was as described above.

| Structure (SMILES) | inhibition at 10 µM [1] [%] | activity at 10 µM [2] [%] |
| --- | --- | --- |
| O=C(Nc1cc(Nc2ccccc2)nc2ccccc12)C1CCCC1 [Compound 16, N-(2-anilinoquinolin-4-yl)cyclopentanecarboxamide] | 61 | 145 |
| O=C(Nc1cc(Nc2ccc(Cl)c(Cl)c2)nc2ccccc12)C1CCCC1 [Compound 17, N-{2-[(3,4-dichlorophenyl)amino]quinolin-4-yl}cyclopentanecarboxamide] | 50 | 169 |
| O=C(Nc1cc(NCc2ccccc2)nc2ccccc12)C1CCCC1 [Compound 18, N-[2-(benzylamino)quinolin-4-yl]cyclopentanecarboxamide] | 28 | 107 |
| Cc1ccc(Nc2cc(NC(=O)C3CCCC3)c3ccccc3n2)cc1 [Compound 19, N-{2-[(4-methylphenyl)amino]quinolin-4-yl}cyclopentanecarboxamide] | 63 | 165 |
| O=C(Nc1cc(Nc2ccc3c(c2)CCC3)nc2ccccc12)C1CCCC1 [Compound 20, N-[2-(2,3-dihydro-1H-inden-5-ylamino)quinolin-4-yl]cyclopentanecarboxamide] | 62 | 147 |
| COc1ccc(Nc2cc(NC(=O)C3CCCC3)c3ccccc3n2)cc1 [Compound 21, N-{2-[(4-methoxyphenyl)amino]quinolin-4-yl}cyclopentanecarboxamide] | 35 | 134 |
| O=C(Nc1cc(NC2CCCC2)nc2ccccc12)C1CCCC1 [Compound 23, N-[2-(cyclopentylamino)quinolin-4-yl]cyclopentanecarboxamide] | 14 | 114 |
| O=C(Nc1cc(Nc2ccc3cn[nH]c3c2)nc2ccccc12)C1CCCC1 [Compound 24, N-[2-(1H-indazol-6-ylamino)quinolin-4-yl]cyclopentanecarboxamide] | 90 | 102 |
| O=C(Nc1cc(Nc2ccc(Cl)c(Cl)c2)nc2ccccc12)C1CCCCC1 [Compound 26, N-{2-[(3,4-dichlorophenyl)amino]quinolin-4-yl}cyclohexanecarboxamide] |  | ≤ 249 |
| Cc1ccc(Nc2cc(NC(=O)C3CCCCC3)c3ccccc3n2)cc1 [Compound 27, N-{2-[(4-methylphenyl)amino]quinolin-4-yl}cyclohexanecarboxamide] | 64 | 220 |
| O=C(Nc1cc(Nc2ccc3c(c2)CCC3)nc2ccccc12)C1CCCCC1 [Compound 28, N-[2-(2,3-dihydro-1H-inden-5-ylamino)quinolin-4-yl]cyclohexanecarboxamide] | < 50 |  |
| O=C(Nc1cc(Nc2ccccc2)nc2ccccc12)c1ccccc1 [Compound 29, N-(2-anilinoquinolin-4-yl)benzamide] | 76 | 100 |
| O=C(Nc1cc(Nc2ccc(Cl)c(Cl)c2)nc2ccccc12)c1ccccc1 [Compound 30, N-{2-[(3,4-dichloro-phenyl)amino]quinolin-4-yl}benzamide] | 37 | 112 |
| O=C(Nc1cc(Nc2ccccc2)nc2ccccc12)c1ccco1 [Compound 31, N-(2-anilinoquinolin-4-yl)-2-furamide] | 60 | 100 |
| O=C(Nc1cc(Nc2ccc(Cl)c(Cl)c2)nc2ccccc12)c1ccco1 [Compound 32, N-{2-[(3,4-dichlorophenyl)amino]quinolin-4-yl}-2-furamide] | 13 | 96 |
| O=C(Nc1cc(Nc2ccccc2)nc2ccccc12)C1CCC1 [Compound 33, N-(2-anilinoquinolin-4-yl)cyclobutanecarboxamide] | 66 | 119 |
| O=C(Nc1cc(Nc2ccc(Cl)c(Cl)c2)nc2ccccc12)C1CCC1 [Compound 34, N-{2-[(3,4-dichlorophenyl)amino]quinolin-4-yl}cyclobutanecarboxamide] | 51 | 149 |
